Data reported in patent US8686115B2, “Compositions and methods for quantitatively monitoring lipids” (The Board of Trustees of the University of Illinois, priority 2009, dated 2014).

Molecular target: T1, epsin 1 ENTH domain (SEQ ID NO: 1) variant C96A/S4W (eENTH; SEQ ID NO: 2) (Homo sapiens, UniProt Q9Y6I3, C96A/M10C/S4W)
T1 construct: The Epsin1 ENTH domain (1-158 amino acids) was subcloned; GST (C, cleaved yes); made in house; host or cells: E. coli BL21 RIL codon plus
T1 sequence (Q9Y6I3 1-158 S4W/M10C/C96A): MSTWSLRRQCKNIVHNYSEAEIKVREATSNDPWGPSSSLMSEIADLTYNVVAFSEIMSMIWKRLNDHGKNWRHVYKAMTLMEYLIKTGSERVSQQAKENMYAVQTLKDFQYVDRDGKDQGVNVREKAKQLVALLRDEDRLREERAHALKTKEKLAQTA
Experiment: SPR equilibrium binding of epsin1 ENTH C96A/S4W (eENTH) to phosphoinositide-containing LUVs
Conditions: S4W mutant
From the text: The ENTH domain was engineered to introduce a single labeling site (M10C) on the membrane binding surface while removing an endogenous Cys (C96A). We also performed the S4W mutation to suppress its residual affinity for another lipid, phosphatidylinositol-3,4,5-trisphosphate (PtdIns(3,4,5)P3) (PtdIns(4,5)P2/PtdIns(3,4,5)P3=4 for wild type and >10 for the mutant) and to enhance the overall affinity for PtdIns(4,5)P2-containing membranes (ca. 4-fold) (Table 1).
With respect to FIG. 1, an L1 sensor chip was coated with POPC/POPS/PtdIns(4,5)P2 (77:20:3) LUVs. The proteins were incubated with a given concentration of IP3 for 5 minutes before injecting into the SPR instrument. Kinetic SPR measurements were performed in 20 mM Tris-HCL, pH 7.4, containing 0.16 KCl. […] A lower concentration of DAN-eENTH was used than that of PLCδ PH because the former has much higher affinity that the latter. […]
E. coli BL21 RIL codon plus (Stratagene) cells were used for protein expression. […] Purity and the concentration of the recombinant proteins were determined by sodium dodecylsulfate-polyacrylamide gel electrophoresis and bicinchoninic acid assay, respectively. The DAN labeling yield of eENTH, which was calculated as the molar ratio of DAN (determined spectrophotometrically at 391 nm using its extinction coefficient of 20,000 cm^−1 M^−1) to protein, was typically 60-70%. […]

PtdIns(4,5)P2/PtdIns(3,4,5)P3 selectivity: > 10
SMILES: CCCCCCCCCCCCCCCC(=O)OC[C@H](COP(=O)(O)O[C@@H]1[C@H](O)[C@H](O)[C@@H](OP(=O)(O)O)[C@H](OP(=O)(O)O)[C@H]1O)OC(=O)CCCCCCCCCCCCCCC [PtdIns(4,5)P2, phosphatidylinositol-4,5-bisphosphate]
